# Reference: publication PMC11117652, “The Construction and Application of a New Screening Method for Phosphodiesterase Inhibitors” (Biosensors, 2024)
# Several values for one entry are separate records, joined by “and”; a condition that tells them apart may be missing. Equal entries are not always repeated. Where two headings read alike, the source gives them in different places.
# How the values were obtained:
# [1] = system: cAMP-related PDEs; assay: GloSensor live-cell screening model targeting cAMP (pGloSensor-22F cAMP plasmid in HEK293T cells, forskolin-stimulated); format: cell-based, human; conditions: for Luminescence Signal (%): cAMP cell screening model, (experimental group - blank control)/blank control luminescence x 100%, compound concentration not given; for IC50: Homo sapiens, HEK-293T, HEK293T cells, 5 μM forskolin, n = 3, read-out: IC50 detected using the cell screening model targeting cAMP
# Experimental: The HEK293T human embryonic kidney cell line was purchased from SunnCell (Wuhan, China). After recovery, HEK293T cells were passaged 3–4 times a week and cultured at 37 °C in 5% CO2. The culture medium consisted of DMEM, 10% FBS, and 1% antibiotic solution.
# Cells were grown to a density of 70–80% in a 6 cm culture dish, the original culture medium was discarded, and 3 mL Opti-MEM was added. A total of 5 μL lipo2000 transfection reagents and 7 μL plasmids were each diluted to 50 μL with Opti-MEM. The above two solutions were mixed, allowed to stand for 20 min, and then added to the cell culture medium. They were then incubated with 5% CO2 at 37 °C for 5 h. The original culture medium was discarded and replaced with the DMEM culture medium. After overnight cultivation at 37 °C and 5% CO2, the transfected cells were transferred to a 96-well plate and cultured under the same conditions for 9 h.
# The original culture medium was replaced with 80 μL/well loaded culture medium (containing 2 mM D-Luciferin protein) and incubated at room temperature (20–23 °C) in the dark for 2 h. A total of 10 μL/well with a concentration of 50 μM forskolin (for cAMP testing) or 250 μM SNAP (for cGMP testing) was added to the sample culture medium to increase the level of background cyclic nucleotides in the cells. According to the detection requirements, a certain concentration of analytes was sequentially added to different wells, and the luminescence signal was measured using the SynergyNeo2 (Agilent, Santa Clara, CA, USA) instrument at time 0. The measurement was conducted every 5 min, and the longest duration was based on the start of the luminescence signal’s decline.
# (§1) Data analysis was carried out using Microsoft Excel and GraphPad Prism 8 software (version 8.0.2 for Windows, GraphPad Software, San Diego, CA, USA). The data in the luminescence signal from the replica well were averaged to produce a response vs. time curve. The cell screening results of the compounds were expressed as percentages (the difference in luminescence signals between the experimental group and the blank control group/blank control group luminescence signal × 100%). For the measurement of IC50, at least seven concentrations of chemicals were used, and IC50 values were calculated using the nonlinear method.
# Considering the detection efficiency, the possible toxicity of the reagent to cells, and the Z-factor, the optimal concentration of the AC agonist forskolin required for the cell screening model targeting cAMP was set at 5 μM.
# To determine the shortest detection time for the two cell models, the luminescence signal–time curve was established. Based on the variations in luminescence detection values over time from two sets of data (Figure 2), it was determined that the detection time for cell screening models targeting cAMP should not be less than 35 min, while the detection time for cell screening models targeting cGMP should not be less than 30 min.
# [2] = biological target: T1, Recombinant human PDE4B protein (Homo sapiens, UniProt Q07343); assay: In vitro enzymatic activity assay (PDE-Glo Phosphodiesterase Assay), PDE4B; format: biochemical
# T1 construct: purchased Abcam ab125582
# T1 sequence (Q07343 whole entry): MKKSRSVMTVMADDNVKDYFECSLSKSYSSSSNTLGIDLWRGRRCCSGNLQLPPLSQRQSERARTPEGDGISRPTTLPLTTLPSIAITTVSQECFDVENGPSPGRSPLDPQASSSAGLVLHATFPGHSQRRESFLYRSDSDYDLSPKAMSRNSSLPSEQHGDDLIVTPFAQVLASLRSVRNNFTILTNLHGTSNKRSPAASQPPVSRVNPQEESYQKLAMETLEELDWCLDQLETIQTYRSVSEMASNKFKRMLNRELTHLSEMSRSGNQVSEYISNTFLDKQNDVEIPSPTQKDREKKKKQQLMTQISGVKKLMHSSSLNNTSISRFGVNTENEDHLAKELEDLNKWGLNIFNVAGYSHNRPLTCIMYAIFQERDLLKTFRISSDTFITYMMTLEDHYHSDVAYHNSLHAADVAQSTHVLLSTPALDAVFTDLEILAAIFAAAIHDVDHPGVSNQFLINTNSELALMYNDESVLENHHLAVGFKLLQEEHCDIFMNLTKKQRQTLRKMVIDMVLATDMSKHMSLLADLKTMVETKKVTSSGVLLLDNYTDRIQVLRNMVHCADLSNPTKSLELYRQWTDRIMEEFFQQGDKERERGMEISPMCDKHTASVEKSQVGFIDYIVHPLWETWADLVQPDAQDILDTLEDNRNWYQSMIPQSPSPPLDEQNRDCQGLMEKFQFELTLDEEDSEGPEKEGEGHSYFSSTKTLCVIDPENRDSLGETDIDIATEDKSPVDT
# Experimental: (§2) Penicillin–Streptomycin solution (10,000 U/mL Penicillin, 10,000 μg/mL Streptomycin; Cat #C100C5) was obtained from NCM Biotech (Suzhou, China). Fetal Bovine Serum (FBS; Cat #BC-SE-FBS01) and phosphate-buffered saline (PBS; Cat #10010001) were obtained from Sbjbio (Nanjing, China). Trypsin-EDTA Solution (Cat #BL512A) was obtained from Biosharp (Hefei, China). DMEM medium (High Glucose; Cat #XB01-01) was obtained from VivaCell (Shanghai, China). Opti-MEM medium (Cat #Lvn1012A) was obtained from Livning (Beijing, China). […] The Lipofectamine™ 2000 Transfection Kit (Cat #11668500) was obtained from Thermo Fisher Scientific (Waltham, MA, USA). The pGloSensor™-22F cAMP Plasmid map (Cat #E2301), pGloSensor™-42F cGMP Plasmid map (Cat #CS177001), and PDE-Glo™ Phosphodiesterase Assay (Cat #V1361) were purchased from Promega (Madison, WI, USA). Recombinant human PDE4B protein (Cat #ab125582) and recombinant human PDE7A/HCP1 protein (Cat #ab125786) were obtained from Abcam (Cambridgeshire, UK).
# (§3) The inhibitory activities of the compounds against PDE4B and PDE7A were determined according to the procedures required for the PDE-Glo™ Phosphodiesterase Assay.
# Data analysis was carried out using Microsoft Excel and GraphPad Prism 8 software (version 8.0.2 for Windows, GraphPad Software, San Diego, CA, USA). The data in the luminescence signal from the replica well were averaged to produce a response vs. time curve. […] For the measurement of IC50, at least seven concentrations of chemicals were used, and IC50 values were calculated using the nonlinear method.
# [3] = biological target: T2, Recombinant human PDE7A/HCP1 protein (Homo sapiens, UniProt Q13946); assay: In vitro enzymatic activity assay (PDE-Glo Phosphodiesterase Assay), PDE7A; format: biochemical
# T2 construct: purchased Abcam ab125786
# T2 sequence (Q13946 whole entry): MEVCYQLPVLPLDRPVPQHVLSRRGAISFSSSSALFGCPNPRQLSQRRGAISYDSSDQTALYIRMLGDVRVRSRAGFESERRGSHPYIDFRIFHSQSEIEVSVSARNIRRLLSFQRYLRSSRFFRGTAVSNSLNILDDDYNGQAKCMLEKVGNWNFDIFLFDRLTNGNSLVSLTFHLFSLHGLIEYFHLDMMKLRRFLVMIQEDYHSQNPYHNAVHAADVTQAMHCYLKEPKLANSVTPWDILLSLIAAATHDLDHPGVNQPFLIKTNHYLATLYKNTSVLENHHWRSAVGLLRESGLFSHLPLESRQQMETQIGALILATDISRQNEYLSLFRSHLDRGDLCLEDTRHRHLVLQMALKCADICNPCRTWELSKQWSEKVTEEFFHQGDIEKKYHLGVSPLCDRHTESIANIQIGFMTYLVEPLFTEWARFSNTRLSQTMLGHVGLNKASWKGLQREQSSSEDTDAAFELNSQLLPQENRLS
# Experimental: as §2, with “UK). Compounds 1–7 were provided by Guoqiang Li’s research group (School of Medicine and Pharmacy, Ocean University, Qingdao, China).” for “UK).”
# as §3, §1
# [4] = system: cGMP-related PDEs; assay: GloSensor live-cell screening model targeting cGMP (pGloSensor-42F cGMP plasmid in HEK293T cells, SNAP-stimulated); format: cell-based; conditions: Homo sapiens, HEK-293T, read-out: IC50 detected using the cell screening model targeting cGMP
# Experimental: The HEK293T human embryonic kidney cell line was purchased from SunnCell (Wuhan, China). After recovery, HEK293T cells were passaged 3–4 times a week and cultured at 37 °C in 5% CO2. The culture medium consisted of DMEM, 10% FBS, and 1% antibiotic solution. Cells were grown to a density of 70–80% in a 6 cm culture dish, the original culture medium was discarded, and 3 mL Opti-MEM was added. A total of 5 μL lipo2000 transfection reagents and 7 μL plasmids were each diluted to 50 μL with Opti-MEM. The above two solutions were mixed, allowed to stand for 20 min, and then added to the cell culture medium. They were then incubated with 5% CO2 at 37 °C for 5 h. The original culture medium was discarded and replaced with the DMEM culture medium. After overnight cultivation at 37 °C and 5% CO2, the transfected cells were transferred to a 96-well plate and cultured under the same conditions for 9 h. The original culture medium was replaced with 80 μL/well loaded culture medium (containing 2 mM D-Luciferin protein) and incubated at room temperature (20–23 °C) in the dark for 2 h. A total of 10 μL/well with a concentration of 50 μM forskolin (for cAMP testing) or 250 μM SNAP (for cGMP testing) was added to the sample culture medium to increase the level of background cyclic nucleotides in the cells. According to the detection requirements, a certain concentration of analytes was sequentially added to different wells, and the luminescence signal was measured using the SynergyNeo2 (Agilent, Santa Clara, CA, USA) instrument at time 0. The measurement was conducted every 5 min, and the longest duration was based on the start of the luminescence signal’s decline. Data analysis was carried out using Microsoft Excel and GraphPad Prism 8 software (version 8.0.2 for Windows, GraphPad Software, San Diego, CA, USA). The data in the luminescence signal from the replica well were averaged to produce a response vs. time curve. The cell screening results of the compounds were expressed as percentages (the difference in luminescence signals between the experimental group and the blank control group/blank control group luminescence signal × 100%). For the measurement of IC50, at least seven concentrations of chemicals were used, and IC50 values were calculated using the nonlinear method. […] Similar to the cell screening models targeting cAMP, the cell screening models targeting cGMP could not effectively detect the ability of sildenafil to increase intracellular cGMP levels when the GC agonist SNAP was not present or was at low concentrations. […] To determine the shortest detection time for the two cell models, the luminescence signal–time curve was established.
# [5] = system: PDE5; parameters: method as in PMID 12646997; conditions: cited from earlier work
# [6] = HEK293T cells, 25 μM SNAP, n = 3
Structure (SMILES),Luminescence Signal (%) [1] [%],IC50 [2] [µM],IC50 [3],also measured
"COc1cc(C=Cc2ccncc2)cc(OC)c1OC [Compound 4, 4-[2-(3,4,5-Trimethoxyphenyl)-ethenyl] pyridine]",77,12.6,8.6 µM,
"Cc1c(O)c(C)c2c(c1O)C(=O)O[C@](C)(O)[C@H]2C [Compound 7, (3S,4S)-sclerotinin A]",53,28.2,~5.6 µM and 5.6 µM,PDE4B inhibitory activity (in words) [2]: weak
"Cc1ccc([N+](=O)[O-])cc1S(=O)(=O)N(C)C [BRL-50481, reference compound]",,,0.2 µM,
"Cc1nc(-c2cnn(C)c2-c2ccc(C(F)(F)F)cn2)c2c(N3CCC3)ncnn12 [PF-999, PF-05180999, reference compound]",,,,"IC50 [1]: 142 µM; IC50 [4, 6]: 45.6 µM"
"COc1ccccc1C=Cc1ccc(N(C)C)cc1 [Compound 5, 4-[2-(2-Methoxyphenyl)-ethenyl]-N,N-dimethylbenzenamine]",55,14.1,2.1 µM,
"COc1cc(C=Cc2cccnc2)cc(OC)c1OC [Compound 3, 3-[2-(3,4,5-Trimethoxyphenyl)-ethenyl] pyridine]",87,5.7,4.5 µM,
"CC(C)Cn1c(=O)n(C)c(=O)c2[nH]cnc21 [IBMX, Isobutylmethylxanthine, reference compound]",,,,"IC50 [1]: 28.6 µM; IC50 [4, 6]: 184 µM"
"CCCc1nn(C)c2c(=O)[nH]c(-c3cc(S(=O)(=O)N4CCN(C)CC4)ccc3OCC)nc12 [Sildenafil, sildenafil]",,,,"IC50 [4, 6]: ~0.1 µM"
"COc1cc2c(cc1OC)-c1c(OC)c(OC)cc3c1[C@H](C2)N(C)CC3 [Glaucine, reference compound]",,,,IC50 [1]: 59.8 µM
"Clc1cccc(Cl)c1C=Cc1ccccn1 [Compound 1, 2-[2-(2,6-Dichlorophenyl)-ethenyl] pyridine]",109,63.7,28.7 µM,
COc1ccc(-c2oc3c(CC=C(C)C)c(O[C@@H]4O[C@H](CO)[C@@H](O)[C@H](O)[C@H]4O)cc(O)c3c(=O)c2O[C@@H]2O[C@@H](C)[C@H](O)[C@@H](O)[C@H]2O)cc1 [Icariin],,,,IC50 [4]: 642 µM; IC50 [5]: 0.432 µM
"CC(=O)O[C@@H]1C(=O)CCC2=CCC[C@H](C)[C@@]2(C)/C=C\1C [Compound 6, 4-acetoxy-2,8-neolemnadien-5-one]",51,,36.2 µM,PDE7A inhibitory activity (in words) [3]: weak
"COc1ccc(C2CNC(=O)C2)cc1OC1CCCC1 (stereo not shown) [Rolipram, rolipram, reference compound]",300,,,"IC50 [1]: ~0.1 µM; difference in luminescence signal values between rolipram and PBS groups ([1]; rolipram 5 μM, forskolin 5 μM, cAMP cell model): over 1000"
"COc1cc(C=Cc2ccccn2)cc(OC)c1OC [Compound 2, 2-[2-(3,4,5-Trimethoxyphenyl)-ethenyl] pyridine]",51,25.5,47.4 µM,
